Holding throughout (format): cell-based
The target in one test is T1, M1 muscarinic receptor (Homo sapiens, UniProt P11229).
T1 construct: expressed in transfected cells; host or cells: CHO (M1-CHO)
T1 sequence (P11229 1-460): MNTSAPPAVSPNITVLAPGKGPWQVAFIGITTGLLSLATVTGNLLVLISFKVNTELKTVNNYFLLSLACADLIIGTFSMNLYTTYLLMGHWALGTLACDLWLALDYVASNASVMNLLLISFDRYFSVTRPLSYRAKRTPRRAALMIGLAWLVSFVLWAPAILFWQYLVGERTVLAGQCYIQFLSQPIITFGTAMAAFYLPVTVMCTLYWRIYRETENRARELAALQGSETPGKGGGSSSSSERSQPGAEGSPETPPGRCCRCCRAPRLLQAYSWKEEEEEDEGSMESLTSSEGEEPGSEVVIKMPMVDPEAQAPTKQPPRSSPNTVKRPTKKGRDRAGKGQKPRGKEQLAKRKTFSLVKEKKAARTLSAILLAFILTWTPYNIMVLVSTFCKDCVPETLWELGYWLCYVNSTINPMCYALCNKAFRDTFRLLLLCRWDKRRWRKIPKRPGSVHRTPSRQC
Put plainly: Functional mobilization of intracellular calcium (FLIPR) in CHO cells expressing M1. The note with it: for M1 Activity: CHO cells expressing M1, FLIPR calcium assay; for Emax: CHO, 100% efficacy = maximum response obtained with the Carbachol control. The method, boiled down: (§1)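 Recombinant CHO cells loaded with Fluo-3 AM or Calcium 3 dye in pH 7.4 buffer containing 1 mM probenecid, with 0.5% final DMSO. For agonism, compound is added directly. For inhibition, it is preincubated 15 min, or co-applied, before carbachol at EC80. FLIPR fluorescence (ex 488, em 540 nm) is recorded for 60 s.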

The target of the next test is T2, M2 muscarinic receptor (Homo sapiens, UniProt P08172).
T2 construct: expressed in transfected cells; host or cells: CHO (M2-CHO)
T2 sequence (P08172 1-466): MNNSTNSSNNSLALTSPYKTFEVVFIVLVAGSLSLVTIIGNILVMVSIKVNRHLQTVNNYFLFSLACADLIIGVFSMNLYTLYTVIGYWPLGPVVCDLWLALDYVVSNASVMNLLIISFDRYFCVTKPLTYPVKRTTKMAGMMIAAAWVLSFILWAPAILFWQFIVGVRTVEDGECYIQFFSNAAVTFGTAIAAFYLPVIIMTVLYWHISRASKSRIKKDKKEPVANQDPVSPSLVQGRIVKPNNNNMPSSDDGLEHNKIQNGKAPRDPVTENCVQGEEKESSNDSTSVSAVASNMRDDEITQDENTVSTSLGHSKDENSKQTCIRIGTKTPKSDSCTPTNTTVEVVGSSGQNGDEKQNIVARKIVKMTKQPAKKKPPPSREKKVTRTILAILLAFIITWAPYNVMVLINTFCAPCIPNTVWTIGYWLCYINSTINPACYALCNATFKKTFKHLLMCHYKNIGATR
Nature of the test: Functional mobilization of intracellular calcium (FLIPR) in CHO cells expressing M2. Conditions: for M2 Activity: CHO cells expressing M2, FLIPR calcium assay; for Emax: CHO, 100% efficacy = maximum response obtained with the Carbachol control. The method, boiled down: as §1
On the technique in general: Calcium assays in cells follow changes in intracellular calcium, usually with a dye or a luminescent sensor.

For another test, the target named is T3, M3 muscarinic receptor (Homo sapiens, UniProt P20309).
T3 construct: expressed in transfected cells; host or cells: CHO (M3-CHO)
Nature of the test: Functional mobilization of intracellular calcium (FLIPR) in CHO cells expressing M3. Conditions: for M3 Activity: CHO cells expressing M3, FLIPR calcium assay; for Emax: CHO, 100% efficacy = maximum response obtained with the Carbachol control. A digest of the protocol: as §1

In a further test the target is T4, M4 muscarinic receptor (Homo sapiens, UniProt P08173).
T4 construct: expressed in transfected cells; host or cells: CHO (M4-CHO)
T4 sequence (P08173 1-479): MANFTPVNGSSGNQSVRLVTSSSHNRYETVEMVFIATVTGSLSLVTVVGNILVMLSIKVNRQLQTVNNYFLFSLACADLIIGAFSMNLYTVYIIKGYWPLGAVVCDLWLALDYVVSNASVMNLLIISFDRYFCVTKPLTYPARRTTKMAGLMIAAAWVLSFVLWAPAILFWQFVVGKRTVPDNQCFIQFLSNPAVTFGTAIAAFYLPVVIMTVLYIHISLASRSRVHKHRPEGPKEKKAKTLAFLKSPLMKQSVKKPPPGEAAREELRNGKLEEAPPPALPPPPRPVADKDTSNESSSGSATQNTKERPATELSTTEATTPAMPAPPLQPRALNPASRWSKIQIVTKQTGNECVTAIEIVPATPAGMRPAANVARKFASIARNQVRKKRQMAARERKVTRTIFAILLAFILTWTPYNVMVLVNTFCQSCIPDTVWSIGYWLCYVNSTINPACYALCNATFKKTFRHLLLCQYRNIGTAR
Nature of the test: Functional mobilization of intracellular calcium (FLIPR) in CHO cells expressing M4. The note with it: for M4 Activity: CHO cells expressing M4, FLIPR calcium assay; for Emax: CHO, 100% efficacy = maximum response obtained with the Carbachol control. A digest of the protocol: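 Read-out: FLIPR fluorescence (ex 488, em 540 nm) over 60 s. Recombinant CHO lines are dye-loaded (Fluo-3 AM or Calcium 3) with 1 mM probenecid. For antagonist mode, compound is pre-incubated 15 min, or co-applied, then carbachol is added at 3× EC80 per subtype.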

Here are results for twelve molecules from patent US8003660B2, “Modulators of muscarinic receptors” (Vertex Pharmaceuticals Incorporated, priority 2006, dated 2011).

Bounds are passed on as bounds.

As usually defined, the Emax is the maximal effect, on the per cent scale that the assay sets.

T3 sequence (P20309 whole entry): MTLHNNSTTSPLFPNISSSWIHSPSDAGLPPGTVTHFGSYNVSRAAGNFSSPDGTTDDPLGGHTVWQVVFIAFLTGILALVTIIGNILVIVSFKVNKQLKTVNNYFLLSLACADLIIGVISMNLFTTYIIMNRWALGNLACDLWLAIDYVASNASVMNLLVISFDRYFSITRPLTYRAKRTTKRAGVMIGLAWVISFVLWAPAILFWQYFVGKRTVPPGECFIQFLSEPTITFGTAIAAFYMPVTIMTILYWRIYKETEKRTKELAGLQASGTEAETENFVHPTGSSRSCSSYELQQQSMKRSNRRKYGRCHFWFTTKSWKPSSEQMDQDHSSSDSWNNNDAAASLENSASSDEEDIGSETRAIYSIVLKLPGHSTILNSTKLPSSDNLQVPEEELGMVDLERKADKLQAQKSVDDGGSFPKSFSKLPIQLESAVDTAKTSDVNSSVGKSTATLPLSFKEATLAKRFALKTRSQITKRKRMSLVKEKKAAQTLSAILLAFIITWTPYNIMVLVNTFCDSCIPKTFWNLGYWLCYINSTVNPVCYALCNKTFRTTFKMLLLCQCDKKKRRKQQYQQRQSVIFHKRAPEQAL

Take `COc1cc2c(cc1OC)C1(CCN(C(=O)OC(C)(C)C)CC1)CC2=O` [compound 239]: on M1 muscarinic receptor, the “M1 Activity” value is on record as “+ (activity was measured to be greater than 5.0 μM)” and the Emax is under 25%. Moreover, on M2 muscarinic receptor, the “M2 Activity” value is “+ (activity was measured to be greater than 5.0 μM)” and the Emax was under 25%. On M3 muscarinic receptor, the “M3 Activity” value is “+ (activity was measured to be greater than 5.0 μM)” and the maximum response (Emax) is under 25%. Moreover, at M4 muscarinic receptor, the “M4 Activity” value is reported as “+ (activity was measured to be greater than 5.0 μM)” and the Emax was under 25%.
Turning to `CCNC(=O)CN1CCC2(CC1)C[C@H](NC(C)=O)c1ccccc12` [compound 241], on M1 muscarinic receptor, the “M1 Activity” value is given as “+ (activity was measured to be greater than 5.0 μM)” and the maximal effect (Emax) was under 25%. On M2 muscarinic receptor, the “M2 Activity” value is listed as “+ (activity was measured to be greater than 5.0 μM)” and the Emax was under 25%. At M3 muscarinic receptor, the “M3 Activity” value was “+ (activity was measured to be greater than 5.0 μM)” and the maximum response (Emax) was under 25%. Besides, at M4 muscarinic receptor, the “M4 Activity” value is “+ (activity was measured to be greater than 5.0 μM)” and the maximal response (Emax) was under 25%.
On to `C=CCCCN1CCC2(CC1)C[C@H](NC(C)=O)c1ccccc12` [compound 242], for which, at M1 muscarinic receptor, the “M1 Activity” value is on record as “+ (activity was measured to be greater than 5.0 μM)” and the maximal effect (Emax) was in the range of 25 to 100%. Further, on M2 muscarinic receptor, the “M2 Activity” value was “+ (activity was measured to be greater than 5.0 μM)” and the maximal response (Emax) is under 25%. Moreover, on M3 muscarinic receptor, the “M3 Activity” value is given as “+ (activity was measured to be greater than 5.0 μM)” and the Emax was under 25%. Moreover, at M4 muscarinic receptor, the “M4 Activity” value is “++ (activity was measured to be from 2.0 μM to 5.0 μM)” and the Emax lay within 25 to 100%.
With `CC(=O)N[C@H]1CC2(CCN(CC(C)(C)C)CC2)c2ccccc21` [compound 243], on M1 muscarinic receptor, the “M1 Activity” value was “+ (activity was measured to be greater than 5.0 μM)” and the Emax was in the range of 25 to 100%. Also, at M2 muscarinic receptor, the “M2 Activity” value is on record as “+ (activity was measured to be greater than 5.0 μM)” and the maximal response (Emax) was 25 to 100%. In addition, on M3 muscarinic receptor, the “M3 Activity” value is “+ (activity was measured to be greater than 5.0 μM)” and the Emax was under 25%. For the same molecule, at M4 muscarinic receptor, the “M4 Activity” value is “+++ (activity was measured to be less than 2.0 μM)” and the Emax was 25 to 100%.
For the molecule `CC(=O)N[C@H]1CC2(CCN(CCC(C)(C)C)CC2)c2ccccc21` [compound 244], at M1 muscarinic receptor, the “M1 Activity” value is listed as “+++ (activity was measured to be less than 2.0 μM)” and the maximal response (Emax) fell in the range of 25 to 100%. In addition, on M2 muscarinic receptor, the “M2 Activity” value was “+ (activity was measured to be greater than 5.0 μM)” and the maximal effect (Emax) is under 25%. Moreover, on M3 muscarinic receptor, the “M3 Activity” value was “+ (activity was measured to be greater than 5.0 μM)” and the Emax is under 25%. For the same molecule, at M4 muscarinic receptor, the “M4 Activity” value was “+++ (activity was measured to be less than 2.0 μM)” and the Emax is 25 to 100%.
As for `CC(C)(C)CN1CCC2(CC1)CC(C(=O)O)c1ccccc12` (stereo not drawn) [compound 246], at M1 muscarinic receptor, the “M1 Activity” value is on record as “+ (activity was measured to be greater than 5.0 μM)” and the Emax was under 25%. Besides, on M2 muscarinic receptor, the “M2 Activity” value was “+ (activity was measured to be greater than 5.0 μM)” and the Emax was under 25%. For the same molecule, on M3 muscarinic receptor, the “M3 Activity” value is recorded as “+ (activity was measured to be greater than 5.0 μM)” and the maximum response (Emax) is under 25%. Moreover, at M4 muscarinic receptor, the “M4 Activity” value is listed as “+ (activity was measured to be greater than 5.0 μM)” and the Emax was under 25%.
Take `CC(C)CCN1CCC2(CC1)C[C@H](NC(=O)C1CC1)c1ccccc12` [compound 247]: at M1 muscarinic receptor, the “M1 Activity” value is on record as “+ (activity was measured to be greater than 5.0 μM)” and the Emax lay in the range of 25 to 100%. On M2 muscarinic receptor, the “M2 Activity” value was “+ (activity was measured to be greater than 5.0 μM)” and the maximal response (Emax) was under 25%. Besides, on M3 muscarinic receptor, the “M3 Activity” value was “+ (activity was measured to be greater than 5.0 μM)” and the Emax is under 25%. Also, at M4 muscarinic receptor, the “M4 Activity” value is “+ (activity was measured to be greater than 5.0 μM)” and the maximum response (Emax) is under 25%.
Take `CC/C=C\CCCCCCN1CCC2(CC1)C[C@H](NC(C)=O)c1ccccc12` [compound 248]: on M1 muscarinic receptor, the “M1 Activity” value is reported as “++ (activity was measured to be from 2.0 μM to 5.0 μM)” and the maximal effect (Emax) was 25 to 100%. Further, on M2 muscarinic receptor, the “M2 Activity” value was “+ (activity was measured to be greater than 5.0 μM)” and the maximal effect (Emax) was under 25%. In addition, at M3 muscarinic receptor, the “M3 Activity” value is recorded as “+ (activity was measured to be greater than 5.0 μM)” and the Emax is under 25%. On M4 muscarinic receptor, the “M4 Activity” value is recorded as “+ (activity was measured to be greater than 5.0 μM)” and the maximum response (Emax) was in the range of 25 to 100%.
On to `CC(C)(C)CCN1CCC2(CC1)CC(C(=O)O)c1ccccc12` (stereo not drawn) [compound 250], for which, on M1 muscarinic receptor, the “M1 Activity” value was “+ (activity was measured to be greater than 5.0 μM)” and the Emax lay in the range of 25 to 100%. Further, on M2 muscarinic receptor, the “M2 Activity” value is given as “+ (activity was measured to be greater than 5.0 μM)” and the Emax was under 25%. Besides, on M3 muscarinic receptor, the “M3 Activity” value is given as “+ (activity was measured to be greater than 5.0 μM)” and the maximum response (Emax) is under 25%. Besides, at M4 muscarinic receptor, the “M4 Activity” value is “+ (activity was measured to be greater than 5.0 μM)” and the maximum response (Emax) fell in the range of 25 to 100%.
Turning to `CC(C)(C)CCN1CCC2(CC1)C[C@H](NC(=O)N1CCCC1)c1ccccc12` [compound 251], on M1 muscarinic receptor, the “M1 Activity” value is “+ (activity was measured to be greater than 5.0 μM)” and the Emax was under 25%. For the same molecule, at M2 muscarinic receptor, the “M2 Activity” value is “+ (activity was measured to be greater than 5.0 μM)” and the Emax is under 25%. On M3 muscarinic receptor, the “M3 Activity” value is listed as “+ (activity was measured to be greater than 5.0 μM)” and the Emax was under 25%. Also, at M4 muscarinic receptor, the “M4 Activity” value was “+ (activity was measured to be greater than 5.0 μM)” and the maximal response (Emax) is under 25%.
In the case of `Cc1ccc2c(c1)C(=O)CC21CCN(C(=O)OC(C)(C)C)CC1` [compound 252], at M1 muscarinic receptor, the “M1 Activity” value is listed as “+ (activity was measured to be greater than 5.0 μM)” and the Emax is under 25%. At M2 muscarinic receptor, the “M2 Activity” value is “+ (activity was measured to be greater than 5.0 μM)” and the maximum response (Emax) was under 25%. At M3 muscarinic receptor, the “M3 Activity” value was “+ (activity was measured to be greater than 5.0 μM)” and the maximal effect (Emax) is under 25%. Besides, on M4 muscarinic receptor, the “M4 Activity” value was “+ (activity was measured to be greater than 5.0 μM)” and the Emax was under 25%.
Take `CC(=O)N[C@H]1CC2(CCN(CCC(C)(C)C)CC2)c2ccc(C)cc21` [compound 253]: at M1 muscarinic receptor, the “M1 Activity” value is recorded as “+ (activity was measured to be greater than 5.0 μM)” and the Emax was under 25%. Also, on M2 muscarinic receptor, the “M2 Activity” value is “+ (activity was measured to be greater than 5.0 μM)” and the maximal effect (Emax) was under 25%. At M3 muscarinic receptor, the “M3 Activity” value is “+ (activity was measured to be greater than 5.0 μM)” and the Emax is under 25%. In addition, on M4 muscarinic receptor, the “M4 Activity” value is reported as “+ (activity was measured to be greater than 5.0 μM)” and the Emax lay within 25 to 100%.
